Measurements taken from BindingDB's records for doi:10.1021/jm00100a015 (Centre De Neurochimie Du Cnrs, 1992).

Molecular target: GABA-A receptor (Rattus norvegicus)
Assay: Affinity for gamma-aminobutyric-acid A receptor measured by its ability to displace [3H]gabazine antagonist from rat brain preparations.

SMILES	IC50 [nM]
N=c1ccc(-c2ccsc2)nn1Cc1cc(=O)[nH]o1	88
Cc1cc(-c2ccccc2)nn(CCCC(=O)O)c1=N	800
